Tests used:
[1] = system: carrageenin oedema on rat paw; experiment: Antioedema activity (carrageenin oedema test); format: in vivo
Experimental: (b) Antioedema activity (carrageenin oedema test) Antioedema activity was evaluated in the test of carrageenin oedema on rat paw, after oral and topical administration.

phenylquinone writhing = experiment: Analgesic activity (phenylquinone writhing test); format: in vivo; settings: mouse
Source text: (c) Analgesic activity (phenylguinone writhing test)

mucus excretion = experiment: Mucolytic / expectorant activity (sodium fluorescein excretion); format: in vivo; settings: mouse
rat = settings: in vivo, po
Source text: | ^a maximal nondiarrhoic dose

## CC(=O)Oc1ccccc1C(=O)O [ASA, acetylsalicylic acid]
[1]; 1 hour, 200 mg/kg os
  % change in paw oedema versus controls: -51%
[1]; 2 hours, 200 mg/kg os
  % change in paw oedema versus controls: -39%
[1]; 3 hours, 200 mg/kg os
  % change in paw oedema versus controls: -52%
[1]; 4 hours, 200 mg/kg os
  % change in paw oedema versus controls: -45%
[1]; 5 hours, 200 mg/kg os
  % change in paw oedema versus controls: -42%
Phenylquinone writhing; 50 mg/kg os
  % Variation in comparison with controls: -31%
Phenylquinone writhing; 100 mg/kg os
  % Variation in comparison with controls: -32%

## CN(Cc1cc(Br)cc(Br)c1N)C1CCCCC1 [Bromhexin, Bromhexine]
Mucus excretion; 75 × 1 mg/kg
  % increase of sodium fluorescein excretion in comparison with controls: +48%

## CCCCC1C(=O)N(c2ccccc2)N(c2ccccc2)C1=O [Phenylbutazone]
[1]; 1 hour, 100 mg/kg os
  % change in paw oedema versus controls: -38%
[1]; 2 hours, 100 mg/kg os
  % change in paw oedema versus controls: -30%
[1]; 3 hours, 100 mg/kg os
  % change in paw oedema versus controls: -58%
[1]; 4 hours, 100 mg/kg os
  % change in paw oedema versus controls: -54%
[1]; 5 hours, 100 mg/kg os
  % change in paw oedema versus controls: -47%

## CC1=CCC(C(C)(C)O)CC1O (centres unmarked) [Sobrerol]
Mucus excretion; 150 × 1 mg/kg
  % increase of sodium fluorescein excretion in comparison with controls: +67%

## Escine
[1]; 1 hour, 50 mg/kg os (maximal nondiarrhoic dose)
  % change in paw oedema versus controls: -39%
[1]; 2 hours, 50 mg/kg os (maximal nondiarrhoic dose)
  % change in paw oedema versus controls: -44%
[1]; 3 hours, 50 mg/kg os (maximal nondiarrhoic dose)
  % change in paw oedema versus controls: -51%
[1]; 4 hours, 50 mg/kg os (maximal nondiarrhoic dose)
  % change in paw oedema versus controls: -49%
[1]; 5 hours, 50 mg/kg os (maximal nondiarrhoic dose)
  % change in paw oedema versus controls: -35%
rat
  maximal nondiarrhoic dose: 50 mg/kg

Reference: patent publication US4879376A, “Triterpene saponins having anti-inflammatory, mucolytic and antiedemic activities, process for the preparation thereof and pharmaceutical compositions containing them” (priority 1986, dated 1989)
